Molecules are shown by their SMILES. Calls of active or inactive are those of the source.

For test [1], the target named is SWI/SNF-related matrix-associated actin-dependent regulator of chromatin subfamily A member 2 (Homo sapiens, UniProt P51531). Description: Luminescence-based cell-based high throughput dose response assay to identify activators of the function of SWI/SNF related, matrix associated, actin dependent regulator of chromatin, subfamily a, member 2 (SMARCA2, BRM). The format is functional.

Test [2] in a line: Counterscreen for activators of the function of SWI/SNF related, matrix associated, actin dependent regulator of chromatin, subfamily a, member 2 (SMARCA2, BRM): Luminescence-based cell-based high throughput dose response assay to identify non-selective compounds using the VP16 reporter assay. It is filed as functional.
Test [3] can be described thus: ADAM10 inhibitors, peptide cleavage, dose response, biochemical, QFRET (AID 743254).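 Further: ADAM10 enzyme with the DM2 quenched FRET peptide as substrate; EDANS fluorescence gain as the protease cuts the substrate; inhibitor potency against ADAM10 proteolytic activity.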
The target in test [4] is T1, Disintegrin and metalloproteinase domain-containing protein 17 (Homo sapiens, UniProt P78536). Description: ADAM17 protease inhibitors, dose response, counter-screen for ADAM10 exosite inhibitor project, biochemical, quenched FRET substrate (AID 743253).
Test [5] deals with T2, High affinity choline transporter 1 (Homo sapiens, UniProt Q9GZV3).
T2 sequence (Q9GZV3 whole entry): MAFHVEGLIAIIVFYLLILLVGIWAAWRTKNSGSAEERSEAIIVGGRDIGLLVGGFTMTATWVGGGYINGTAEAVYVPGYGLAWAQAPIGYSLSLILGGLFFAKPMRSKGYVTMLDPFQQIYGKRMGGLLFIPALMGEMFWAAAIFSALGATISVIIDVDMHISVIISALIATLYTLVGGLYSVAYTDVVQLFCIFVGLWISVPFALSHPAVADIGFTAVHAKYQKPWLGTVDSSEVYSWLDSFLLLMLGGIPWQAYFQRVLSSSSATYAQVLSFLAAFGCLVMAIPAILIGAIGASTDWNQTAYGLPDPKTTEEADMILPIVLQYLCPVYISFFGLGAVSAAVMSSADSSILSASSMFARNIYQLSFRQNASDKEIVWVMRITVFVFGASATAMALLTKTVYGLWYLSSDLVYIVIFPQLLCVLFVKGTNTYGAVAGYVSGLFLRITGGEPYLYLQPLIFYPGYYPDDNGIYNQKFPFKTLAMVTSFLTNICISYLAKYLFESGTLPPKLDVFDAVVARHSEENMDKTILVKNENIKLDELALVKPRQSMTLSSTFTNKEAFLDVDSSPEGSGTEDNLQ
Description: CHT inhibitors, dose response, cell-based, 5-point CRC, membrane potential dye (AID 504840). The format is functional.

For test [6], the target named is Major prion protein (Homo sapiens, UniProt P04156). It is filed as functional, cell-based.
Test [7] in a line: cells.
For test [8], the target named is T3, Protein skinhead-1 (Caenorhabditis elegans, UniProt P34707).
T3 sequence (P34707 whole entry): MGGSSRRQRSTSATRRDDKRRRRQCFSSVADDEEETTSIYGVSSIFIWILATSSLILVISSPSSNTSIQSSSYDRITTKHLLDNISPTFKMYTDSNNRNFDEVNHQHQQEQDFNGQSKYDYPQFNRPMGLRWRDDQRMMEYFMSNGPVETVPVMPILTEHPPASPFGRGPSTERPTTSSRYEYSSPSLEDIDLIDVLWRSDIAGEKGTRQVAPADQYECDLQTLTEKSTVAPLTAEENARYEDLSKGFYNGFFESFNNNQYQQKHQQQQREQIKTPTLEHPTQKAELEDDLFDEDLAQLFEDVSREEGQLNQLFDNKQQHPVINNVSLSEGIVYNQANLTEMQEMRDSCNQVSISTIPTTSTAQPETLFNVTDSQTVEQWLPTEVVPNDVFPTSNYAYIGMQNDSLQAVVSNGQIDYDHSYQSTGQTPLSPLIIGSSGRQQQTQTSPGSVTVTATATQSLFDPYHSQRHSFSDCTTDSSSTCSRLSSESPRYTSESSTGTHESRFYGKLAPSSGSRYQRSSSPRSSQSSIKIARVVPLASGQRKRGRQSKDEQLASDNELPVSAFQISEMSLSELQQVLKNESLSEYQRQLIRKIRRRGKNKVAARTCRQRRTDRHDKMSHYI
The format is functional.

The target of test [9] is T1, Disintegrin and metalloproteinase domain-containing protein 17. The test is described as follows: exosite inhibitors of ADAM17, dose response, biochemical (AID 743260).
Test [10] in a line: ADAM10 protease inhibitors, dose response, selectivity assay for ADAM17 exosite inhibitor project, biochemical, FRET peptide substrate, recombinant human ADAM10 (AID 743259).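 Further: ADAM10 enzyme cleaving a FRET peptide substrate.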
Test [11] can be described thus: inhibitors of intracellular T. cruzi replication, confirmation, NIH3T3 host cells, beta-gal luminescence (AID 2044).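 Further: intracellular parasites grown in NIH/3T3 mouse fibroblasts as host cells; luminescent beta-galactosidase reporter signal from transgenic T. cruzi replicating inside host cells; inhibitors lower the luminescence signal.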 It is filed as functional, cell-based.
The nature of test [12]: cytotoxicity toward NIH3T3 fibroblasts, dose response, counter-screen, cell-based, ATP luminescence, mouse fibroblasts (AID 2010).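 Further: cells exposed to compound for about 90 hours before reading.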 It is filed as functional.
The target in test [13] is Beta-galactosidase (Escherichia coli, UniProt Q8VNN2). Description: Dose response counterscreen for EBI2 assay utilizing the enzyme, b-galactosidase. It is filed as functional.
Test [14] deals with Beta-lactamase (Salmonella choleraesuis (strain SC-B67), UniProt Q5J463). The test is described as follows: Epi-absorbance-based counterscreen for selective VIM-2 inhibitors: dose response biochemical high throughput screening assay to identify inhibitors of TEM-1 serine-beta-lactamase.
For test [15], the target named is T4, Beta-lactamase (Pseudomonas aeruginosa, UniProt Q79MP6). The test is described as follows: IMP-1 metallo-beta-lactamase inhibitors, dose response, selectivity assay for VIM-2 inhibitor project, biochemical, epi-absorbance (AID 1920).
In test [16] the target is T4, Beta-lactamase. The test is described as follows: […] counterscreen for selective VIM-2 inhibitors: dose response biochemical high throughput screening assay to identify inhibitors of IMP-1 metallo-beta-lactamase.
Test [17] addresses Protein-tyrosine kinase 2-beta (Homo sapiens, UniProt Q14289).
The subject of test [18] is HEK293. Description: NOD1 signaling inhibitors, primary screen, cell-based, luminescence, uHTS (AID 1578). It is filed as functional. The settings on record: Homo sapiens.
The test system of test [19] is HEK293. Description: cells. It is filed as functional, cell-based. The settings on record: Homo sapiens.
Test [20] has as its system HEK293. Description: cells. It is filed as functional, cell-based. The settings on record: Homo sapiens. This is another data set of the same source.
The target of test [21] is Nucleotide-binding oligomerization domain-containing protein 2 (Homo sapiens, UniProt Q9HC29). The test is described as follows: NOD2 signaling inhibitors, cell-based, luminescence, uHTS, HEK293 (AID 1566). It is filed as functional.
For test [22], the system named is HEK293. The test is described as follows: NOD2 signaling inhibitors in MDP-stimulated cells, cell-based, uHTS, luminescence (AID 2001). The settings on record: Homo sapiens. The format is functional.
Test [23] has as its system HEK293. The test is described as follows: cells. The settings on record: Homo sapiens. The format is functional, cell-based. The source holds these as a separate data set.
Test [24] addresses Tumor necrosis factor (Homo sapiens, UniProt P01375). Description: TNFa-triggered NF-kB activation inhibitors, SAR follow-up, cell-based, revised (AID 2337). The format is functional.
The target in test [25] is T5, Nucleotide-binding oligomerization domain-containing protein 1 (Homo sapiens, UniProt Q9Y239).
T5 sequence (Q9Y239 whole entry): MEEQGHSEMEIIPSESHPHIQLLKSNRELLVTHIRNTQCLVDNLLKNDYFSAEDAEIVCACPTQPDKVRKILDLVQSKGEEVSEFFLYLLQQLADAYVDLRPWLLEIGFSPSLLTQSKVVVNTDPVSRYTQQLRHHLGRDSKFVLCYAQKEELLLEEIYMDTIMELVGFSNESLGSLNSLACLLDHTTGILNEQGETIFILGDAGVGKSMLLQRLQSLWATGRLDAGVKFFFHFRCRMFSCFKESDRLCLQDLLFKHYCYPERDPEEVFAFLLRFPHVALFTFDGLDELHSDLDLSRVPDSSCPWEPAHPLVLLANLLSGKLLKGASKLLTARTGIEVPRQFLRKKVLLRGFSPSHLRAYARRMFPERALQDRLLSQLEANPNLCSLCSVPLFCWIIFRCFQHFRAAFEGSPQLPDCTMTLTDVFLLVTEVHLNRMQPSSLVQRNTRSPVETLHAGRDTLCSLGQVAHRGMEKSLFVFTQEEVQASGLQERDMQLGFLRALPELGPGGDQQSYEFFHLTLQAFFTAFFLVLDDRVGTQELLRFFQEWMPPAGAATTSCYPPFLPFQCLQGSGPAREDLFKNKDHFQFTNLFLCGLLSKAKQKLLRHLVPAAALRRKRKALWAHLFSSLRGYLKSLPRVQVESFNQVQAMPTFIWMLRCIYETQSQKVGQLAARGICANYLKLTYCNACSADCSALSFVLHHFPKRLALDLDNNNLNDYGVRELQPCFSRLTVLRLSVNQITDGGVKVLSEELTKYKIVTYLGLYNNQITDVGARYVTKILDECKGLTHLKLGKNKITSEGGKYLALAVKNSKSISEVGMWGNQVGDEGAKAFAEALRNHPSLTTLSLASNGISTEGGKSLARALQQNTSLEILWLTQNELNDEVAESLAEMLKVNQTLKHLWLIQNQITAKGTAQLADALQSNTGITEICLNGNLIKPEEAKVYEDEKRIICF
The test is described as follows: NOD1 signaling inhibitors, SAR follow-up, revised (AID 2333). It is filed as functional.

For test [26], the target named is Genome polyprotein (dengue virus type 2, UniProt P29990). Description: Dengue-2 NS5 methyltransferase inhibitors, primary screen, biochemical, confirmation dose response (AID 588689). It is filed as functional.
The subject of test [27] is HEK293. Description: cells. The settings on record: Homo sapiens.

Take `COC(=O)Nc1ccc(OCc2ccccc2)cc1`: the EC50 in test [1] and in test [2] was > 91.2 µM (inactive) each time.

`CCC1CO/C(=C(\C(Cl)=C(Cl)Cl)[N+](=O)[O-])N1` (stereo unspecified): the IC50 was 14.9 µM (inactive) in [3] and 27.9 µM (inactive) in test [4].

As to `Cc1csc(NC(=O)CSc2nc(C(C)C)nc3ccccc23)n1`, the figures for the IC50 in test [5], in test [6] and in test [7] were 7.94 µM (active), 2.05 µM (active) and 69.1 µM (inactive), respectively.

Turning to `Nc1nc2ccc(Cl)cc2cc1C(=O)NCc1ccccc1Br`, the figures for the IC50 in [6] and in test [7] were 7.35 µM (active) and 46.3 µM (inactive), respectively.

For `O=C(c1cccs1)N1CCc2c([nH]c3ccccc23)C1c1ccc(Cl)cc1` (stereo unspecified), the IC50 in [8] was > 100 µM (inactive); in test [3] it was > 69.5 µM (inactive); in [9], > 69.5 µM (inactive); in test [10], 32.4 µM (inactive); in [4], > 69.5 µM (inactive).

Consider `CC(C)(C)OC(=O)NCCCC[C@H](NC(=O)c1[nH]cnc1C(=O)NC(c1ccccc1)c1ccccc1)C(=O)OC(C)(C)C`, for which the figures for the half-maximal effective concentration (EC50) in test [11] and in test [12] were 3.48 µM (active) and > 60 µM (not active), respectively. Also, the IC50 in test [3] is 10.6 µM (inactive); in [4], > 69.5 µM (inactive).

For the compound `O=C(c1ccc2ccccc2c1)N1CCN(c2ccc(C(F)(F)F)cn2)CC1`, the IC50 in test [13] was > 80 µM (inactive).

`C=C(c1cccc2ccccc12)P(=O)(O)O`: the IC50 was > 59.6 µM (inactive) in [14], > 59.6 µM (inactive) in test [15], > 59.6 µM (inactive) in [16] and 27 µM (not active) in test [17].

Turning to `COc1cc(C(=O)Nc2scc(-c3ccc(Br)cc3)c2C(=O)O)cc(OC)c1OC`, the 50% effective concentration (EC50) in test [18] is 3.97 µM (active); in test [21], 13.9 µM (active). Besides, the IC50 in test [19] is > 20 µM (inactive); in test [20] it was > 20 µM (inactive); in test [22], 13.2 µM (inactive); in [23] it was 19 µM (active); in [24], 6.88 µM (active); in [25] it was 5.83 µM (active). Besides, the IC50 in test [26] was 58 µM (active); in test [6] it was 5.71 µM (active); in test [27] it was 13.6 µM (active); in test [7] it was > 138 µM (inactive).

Consider `CCC1NC(=O)c2cc3ccccc3cc2-n2c1nc1cc(C)cc(C)c1c2=O` (stereo unspecified), for which the IC50 in test [13] is > 80 µM (inactive).

Turning to `Cc1ccc(-c2cc(C(=O)NN=Cc3cccc(OCc4ccccc4)c3)[nH]n2)cc1C`, the IC50 in test [9] and in test [10] was > 69.5 µM (inactive) each time.

Consider `O=C(c1cc2ccccc2o1)N1CCN(c2ccccc2Cl)CC1`, for which the IC50 in test [13] is > 80 µM (inactive).

In the case of `O=C(CSc1nc2ccccc2s1)N/N=C/c1ccco1`, the EC50 in [1] and in test [2] was > 91.2 µM (inactive) in each case.

For the origin of these results see ChEMBL document CHEMBL1201862, “PubChem BioAssay data set” (2004).
